{
  "source": "the supplement of paper PMC10307832",
  "experiment_in_all_cases": "relative viability (nuclei count vs DMSO), 5 days (fraction); higher = more cells survive",
  "key": {"Fedratinib + Tozasertib": {"compound": "Cc1cnc(Nc2ccc(OCCN3CCCC3)cc2)nc1Nc1cccc(S(=O)(=O)NC(C)(C)C)c1 [Fedratinib] + Cc1cc(Nc2cc(N3CCN(C)CC3)nc(Sc3ccc(NC(=O)C4CC4)cc3)n2)n[nH]1 [Tozasertib] (partner 0.1 µM)", "method_in_brief": "(§1)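 Nuclei were stained with Hoechst during a one-step fixation (final 0.05% Triton X-100, 1% formaldehyde, 1 ug/ml Hoechst) carried out 5 days after dosing, then counted on 4× images. The cells, lung cancer lines in 1536-well plates, had been dosed by pin tool the day after seeding with one drug alone or a fixed anchor-drug dose plus five library-drug doses (not always all listed) in √10 steps. Relative viability is the nuclei count in treated wells divided by that in vehicle wells, and each value is the median of duplicate plates.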"}, "GW-2580 + Alpelisib": {"compound": "COC1=CC=C(C=C1)COC2=C(C=C(C=C2)CC3=CN=C(N=C3N)N)OC [GW-2580] + Cc1nc(NC(=O)N2CCC[C@H]2C(N)=O)sc1-c1ccnc(C(C)(C)C(F)(F)F)c1 [Alpelisib] (partner 2 µM)", "method_in_brief": "as §1"}, "Fedratinib + Linsitinib": {"compound": "Cc1cnc(Nc2ccc(OCCN3CCCC3)cc2)nc1Nc1cccc(S(=O)(=O)NC(C)(C)C)c1 [Fedratinib] + C[C@]1(O)C[C@@H](c2nc(-c3ccc4ccc(-c5ccccc5)nc4c3)c3c(N)nccn32)C1 [Linsitinib] (partner 1 µM)", "method_in_brief": "as §1"}, "Fedratinib + Bortezomib": {"compound": "Cc1cnc(Nc2ccc(OCCN3CCCC3)cc2)nc1Nc1cccc(S(=O)(=O)NC(C)(C)C)c1 [Fedratinib] + CC(C)C[C@H](NC(=O)[C@H](Cc1ccccc1)NC(=O)c1cnccn1)B(O)O [Bortezomib] (partner 0.002 µM)", "method_in_brief": "as §1"}, "GW-2580 + Olaparib": {"compound": "COC1=CC=C(C=C1)COC2=C(C=C(C=C2)CC3=CN=C(N=C3N)N)OC [GW-2580] + O=C(c1cc(Cc2n[nH]c(=O)c3ccccc23)ccc1F)N1CCN(C(=O)C2CC2)CC1 [Olaparib] (partner 8 µM)", "method_in_brief": "as §1"}},
  "data": [
    {"cell line": "NCI-H2009", "values": [
      {"measurement": "relative viability", "setting": "Fedratinib + Tozasertib; first compound 0.1 µM", "value": 0.547},
      {"measurement": "relative viability", "setting": "Fedratinib + Tozasertib; first compound 0.3162 µM", "value": 0.792},
      {"measurement": "relative viability", "setting": "Fedratinib + Tozasertib; first compound 1 µM", "value": 0.652},
      {"measurement": "relative viability", "setting": "GW-2580 + Alpelisib; first compound 0.08 µM", "value": 1.16},
      {"measurement": "relative viability", "setting": "GW-2580 + Alpelisib; first compound 0.8 µM", "value": 1.17},
      {"measurement": "relative viability", "setting": "GW-2580 + Alpelisib; first compound 2.53 µM", "value": 1.08},
      {"measurement": "relative viability", "setting": "GW-2580 + Alpelisib; first compound 8 µM", "value": 1.11},
      {"measurement": "relative viability", "setting": "Fedratinib + Linsitinib; first compound 0.1 µM", "value": 1.18},
      {"measurement": "relative viability", "setting": "Fedratinib + Linsitinib; first compound 0.3162 µM", "value": 1.18},
      {"measurement": "relative viability", "setting": "Fedratinib + Linsitinib; first compound 1 µM", "value": 1.17},
      {"measurement": "relative viability", "setting": "Fedratinib + Bortezomib; first compound 0.1 µM", "value": 0.99},
      {"measurement": "relative viability", "setting": "Fedratinib + Bortezomib; first compound 0.3162 µM", "value": 1.11},
      {"measurement": "relative viability", "setting": "Fedratinib + Bortezomib; first compound 1 µM", "value": 0.131},
      {"measurement": "relative viability", "setting": "GW-2580 + Olaparib; first compound 0.08 µM", "value": 0.752},
      {"measurement": "relative viability", "setting": "GW-2580 + Olaparib; first compound 0.8 µM", "value": 0.698},
      {"measurement": "relative viability", "setting": "GW-2580 + Olaparib; first compound 2.53 µM", "value": 0.918},
      {"measurement": "relative viability", "setting": "GW-2580 + Olaparib; first compound 8 µM", "value": 0.645}
    ]}
  ]
}
